Assay results reported in US20220127298A1, “THERMOSPOROTHRIX HAZAKENSIS-DERIVED ANTIBACTERIALLY ACTIVE SUBSTANCE” (KENNAN EISEI KOGYO CO., LTD., priority 2019, published 2022).
≈ marks a conversion by molar mass, not a printed value.

Experiments:
Format in all cases: cell-based
[1] = test system: Bacillus subtilis NBRC 3134^T; test: Antibacterial activity test in changing pH, paper disk assay; settings: 1000 γ in methanol, 50 μL on paper disk, 37° C., 18 hours
Protocol: Into a 50-mL Falcon tube, 20 mg of HK-1 was weighed out using an electric balance, and therein 20 mL of methanol (1000 γ) was added followed by gentle stirring. Each 3.3 mL was aliquoted to totally two 15-mL Falcon tubes. To one of them 20 μL of 1 N sodium hydroxide was added followed by gentle stirring. The pH was tested with a pH test paper. Ten (10) μL of each sample was subjected to HPLC. The HPLC analysis conditions are as follows. The stability of a compound is regarded as one of the important information for evaluating a substance. This is because, even if the external environment changes, insofar as the compound itself is stable, it can be applied in various situations, and the information leads to acquisition of biological knowledges. Therefore, the stability of the activity was examined by measuring antibacterial activities with respect to G. stearothermophilus, and B. subtilis using the solution prepared in the above “1. Antibacterial spectrum test”. (1) In a 200-mL Erlenmeyer flask, 100 mL of a NB culture medium was prepared and sterilized in an autoclave (121° C., 20 min). (2) After cooling to 50° C. or lower, 100 μL of the B. subtilis spore suspension was added. […] The culture medium was taken out from the incubator, and the diameter of the inhibition ring was measured with calipers (Kanon hardened stainless 150 mm).

[2] = test system: Bacillus subtilis NBRC 3134^T; test: Measurement of minimum inhibitory concentration, dilution method with liquid culture medium; settings: NBRC3134, LB liquid medium, 37° C., 135 rpm, 18 hours, visual observation and OD600
Description: The minimum inhibitory concentration (MIC) is one of the antibiotic susceptibility tests, and means the minimum concentration of an antimicrobial substance at which the visible growth of a microorganism can be inhibited. In the research field, the MIC measurement is used, for example, to compare the effects of a new antibiotic substance and a conventional substance, or to examine actions on several strains, and is regarded as an important criterion for evaluating antibiotic substances. The MIC of “HK-1” which was obtained hereunder as the antibacterial active substance was measured using the dilution method with a liquid culture medium.
A piece of ice out of a glycerol stock of G. stearothermophilus stored at −80° C. was planarly inoculated on the LB agar culture medium with a toothpick. This was incubated at 60° C. for 18 hours. One (1) cm^2 of the culture medium was excavated with a toothpick, placed into a long test tube containing 10 mL of a liquid LB culture medium, and subjected to a shaking culture at 60° C., and 300 rpm, for 18 hours. The culture solution was diluted with sterile water to about McF standard No. 1.
The preparation was performed in the same manner as in 1 above, only except that the temperature was changed to 37° C.
Two (2) mg of HK-1 was weighed out into a 2 mL Eppendorf tube using an electric balance. […]

[3] = test system: Streptomyces griseus NBRC 15744^T; test: Antibacterial spectrum test, paper disk assay; settings: 50 μL of 1000 γ solution in methanol, YMPD medium, 28° C., 4 days
Protocol: (§1) The antibacterial activity of HK-1 was assayed using a paper disk against the following bacterial bodies.
(§2) A piece of ice out of a glycerol stock of S. griseus stored at −80° C. was planarly inoculated on the YMPD agar culture medium with a toothpick. This was incubated at 28° C. for 5 days. After the incubation, a small amount of spore was scraped off with a swab, and planarly inoculated on the YMPD culture medium. A piece of paper disk was placed on a filter paper, onto which 50 μL of a HK-1 solution adjusted to 1000 γ with methanol was dropped and dried. Then the disk was placed on the agar culture medium coated with the bacterial body. After incubation at 28° C. for 4 days, the diameter of the inhibition ring was measured.

Streptomyces sp. AGRN-7 = test: Antibacterial spectrum test, paper disk assay; settings: 50 μL of 1000 γ solution in methanol, ISP2 medium, 45° C., 2 days
Protocol: as §1, §2
An assay was performed in the same manner as in 3 above, except that the incubation conditions were changed to ISP2 culture medium, 45° C., and 2-day period.

MIC [2]: 0.78 µg/mL (≈ 0.474 µM)
SMILES: COc1cc(OOc2cc(OC)c3c(c2-c2c(O)c(Cl)c(C)c4c2C(O)c2c(Cl)c(O)cc(O)c2C4=O)C(OC2OC(C)C(O)C2O)c2c(Cl)c(OC)c(Cl)c(C)c2C3=O)c(-c2c(O)c(Cl)c(C)c3c2C(O)c2c(Cl)c(O)cc(O)c2C3=O)c2c1C(=O)c1c(C)c(Cl)c(OC)c(Cl)c1C2OC1OC(C)C(O)C1O (centres unmarked) [HK-1]
inhibition ring diameter ([1]; solution with pH adjusted to 9): 20.2 mm
inhibition ring diameter ([1]; solution with pH not adjusted): 18.5 mm
inhibition ring diameter [3]: 38.0 mm
inhibition ring diameter (Streptomyces sp. AGRN-7): 22.0 mm
